For four compounds, inhibition results are on record in the Kinase Knowledgebase extract (Sharma et al. 2016).

As usually defined, the inhibition is the percentage by which the read-out fell short of the control. The low end stands for a response near the control, the high end for a response far below the control.

In the assay the target is EGFR (UniProt P00533). As to conditions: concentration not given here.
EGFR, sequence (P00533 whole entry, looked up): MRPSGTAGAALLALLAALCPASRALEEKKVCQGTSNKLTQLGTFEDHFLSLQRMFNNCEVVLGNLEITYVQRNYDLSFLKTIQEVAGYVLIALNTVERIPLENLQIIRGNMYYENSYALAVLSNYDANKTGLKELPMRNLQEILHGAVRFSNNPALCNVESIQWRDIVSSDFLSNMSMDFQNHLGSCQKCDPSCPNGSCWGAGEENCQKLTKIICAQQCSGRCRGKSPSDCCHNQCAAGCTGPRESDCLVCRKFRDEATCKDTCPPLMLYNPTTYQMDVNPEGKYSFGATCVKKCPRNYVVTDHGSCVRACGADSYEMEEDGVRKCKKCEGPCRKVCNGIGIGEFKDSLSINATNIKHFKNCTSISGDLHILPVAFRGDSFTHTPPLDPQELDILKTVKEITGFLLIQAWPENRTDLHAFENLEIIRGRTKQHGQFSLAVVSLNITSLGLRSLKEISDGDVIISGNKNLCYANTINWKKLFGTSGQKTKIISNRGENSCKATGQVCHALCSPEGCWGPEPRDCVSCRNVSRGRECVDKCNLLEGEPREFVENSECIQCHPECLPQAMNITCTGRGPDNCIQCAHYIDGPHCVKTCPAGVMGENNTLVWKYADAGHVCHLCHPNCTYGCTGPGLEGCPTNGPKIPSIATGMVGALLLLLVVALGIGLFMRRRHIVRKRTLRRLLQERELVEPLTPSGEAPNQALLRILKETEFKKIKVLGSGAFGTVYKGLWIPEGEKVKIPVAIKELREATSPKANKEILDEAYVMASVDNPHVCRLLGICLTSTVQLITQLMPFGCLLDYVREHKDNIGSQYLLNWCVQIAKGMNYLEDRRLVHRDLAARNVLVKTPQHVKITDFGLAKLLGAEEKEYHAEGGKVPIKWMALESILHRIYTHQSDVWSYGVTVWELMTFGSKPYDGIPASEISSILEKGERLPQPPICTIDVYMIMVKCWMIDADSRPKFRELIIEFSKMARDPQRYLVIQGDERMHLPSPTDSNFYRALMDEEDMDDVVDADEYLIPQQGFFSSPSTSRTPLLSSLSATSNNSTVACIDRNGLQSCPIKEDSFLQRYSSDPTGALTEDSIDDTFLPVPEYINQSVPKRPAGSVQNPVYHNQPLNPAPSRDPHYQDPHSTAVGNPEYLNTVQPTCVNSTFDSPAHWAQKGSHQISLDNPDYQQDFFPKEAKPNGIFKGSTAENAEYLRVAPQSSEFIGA

`CCC(=O)Nc1ccc(O)c(C(=O)Nc2ccc(Oc3ccccc3)cc2)c1` displayed an inhibition of 48.5%.
With `CCC(=O)Nc1ccc(O)c(C(=O)Nc2cccc(C(=O)N(CC)CC)c2)c1` the figure was 46.6%; with `C=CC(=O)Nc1ccc(OC)c(C(=O)Nc2cccc(Oc3ccccc3)c2)c1`, 1.59%.
The compound `C=CC(=O)Nc1ccc(OC)c(C(=O)Nc2cccc(C(O)c3ccccc3)c2)c1` (centres undefined) came in with an inhibition of 5.84%.
